{"source": "patent US5543410A", "about": "“Pharmacological use of phthaloylhydrazide derivatives; combination and application thereof” (L.I.M.A.D. Limited, priority 1993, dated 1996)", "key": {"[1]": {"details": "aqueous solutions, sodium salt"}, "skin diseases": {"test_system": "skin diseases", "details": "water-soluble applications and ointments"}, "[2]": {"test_system": "piglets affected by dysentery", "experiment": "dysentery in piglets", "type": "in vivo", "description": "Experiments were performed with piglets weighing from 30 to 40 kgs, which were affected by dysentery.\nNevertheless, symptoms reappeared six to seven hours later in one group of animals. This factor rendered repeated administration of the drug necessary."}, "[3]": {"test_system": "proctitis attributable to radiation therapy", "details": "in vivo", "from_the_text": "B., a patient who was […], complained of burning sensations in the anus, along with frequent and painful urination, after having received radiation therapy for a period of forty-five days. During a rectosigmoidoscopy examination, intense edema and contact hemorrhaging within the rectal mucosae were observed above the tumor. The diagnosis was: proctitis and cystitis arising from radiation therapy. On account of a lack of specific therapeutic measures, the drug was prescribed for the patient according to a dose of 100 mg per day."}, "[4]": {"test_system": "Sprague-Dawley Rats' Lipid Metabolism and Serum Lipoproteins", "details": "reducing serum cholesterol; cited from earlier work"}, "metabolic products": {"experiment": "metabolic products", "type": "in vivo", "details": "metabolite"}}, "data": [{"smiles": "Nc1cccc2c(=O)[nH][nH]c(=O)c12", "values": [{"measurement": "period remaining fully active", "setting": "[1]", "value": "sixty to eighty"}, {"measurement": "effectiveness in external use", "setting": "skin diseases", "value": "more effective"}, {"measurement": "time to improvement of condition, diarrhea ceased", "setting": "[2]; 50 mg/kg, first series", "value": "sixty"}, {"measurement": "time to reappearance of symptoms", "setting": "[2]; 50 mg/kg, first series, one group of animals", "value": "six to seven"}, {"measurement": "effectiveness in proctitis attributable to radiation therapy", "setting": "[3]", "value": "effective for proctitis attributable to radiation therapy"}]}, {"smiles": "O=c1[nH][nH]c(=O)c2ccccc12", "note": "[2,3-dihydrophthalazine-1,4-dione]", "values": [{"measurement": "activity", "setting": "[4]", "value": "extremely high level of activity"}]}, {"smiles": "Nc1ccc2c(=O)[nH][nH]c(=O)c2c1", "note": "[4-aminophthaloylhydrazide]", "values": [{"measurement": "therapeutic effect", "setting": "[2]; 10, 25, and 50 mg/kg, third series", "value": "relatively insignificant"}]}, {"smiles": "Nc1ccc(C(=O)O)c(C(=O)O)c1", "note": "[5-aminophthalic acid]", "values": [{"measurement": "excretion unmodified", "setting": "metabolic products", "value": "Most of the aminophthalic acid is expelled from the body without undergoing modification"}]}]}
